Measured values reported in publication PMC9230803, “Synthesis and Antiviral Properties against SARS-CoV-2 of Epoxybenzooxocino[4,3-b]Pyridine Derivatives” (Molecules, 2022).
In brackets after ≈: the same amount, converted by molar mass. Like-named read-outs stand apart in the source and are kept apart here.

Key:
Vero E6 cells = assay: cells; type: cell-based; details: Chlorocebus sabaeus, Vero C1008, upper limit of concentrations tested 200 µg/mL, read-out: IC50 (the source's name)
SARS-CoV-2 virus = assay: microbe, parasite or virus in culture; type: cell-based; details: for inhibition of virus-induced CPE development / virus replication (in words): any concentration up to the tested limit of 200 µg/mL; for selectivity index (SI): IC50/EC50 in Vero E6 cells
[1] = cytotoxicity, uninfected Vero E6 cells, MTT
[2] = Severe acute respiratory syndrome coronavirus 2, Vero C1008, SARS-CoV-2 in Vero E6 cells, CPE-positive wells reduced by half, upper limit tested 200 µg/mL, read-out: EC50
[3] = SARS-CoV-2 in Vero E6 cells, CPE-positive wells reduced by half, upper limit tested 200 µg/mL

## CC(=O)c1cc2c(nc1C)CC1OC2(C)Oc2ccccc21 (stereo not shown) [Compound 3, 1-(2,5-dimethyl-11,12-dihydro-5H-5,11-epoxybenzo[7,8]oxocino[4,3-b]pyridin-3-yl)ethan-1-one]
Vero E6 cells; [1]
  CC50: 131 µg/mL (≈ 444 µM)
SARS-CoV-2 virus; [2]
  EC50: > 200 µg/mL
SARS-CoV-2 virus
  inhibition of virus-induced CPE development / virus replication (in words): did not affect the development of CPE

## CC(=NNC(=O)c1ccncc1)c1cc2c(nc1C)CC1OC2(C)Oc2ccccc21 (stereo not shown) [Compound 4a, (E,Z)-N′-(1-(2,5-dimethyl-11,12-dihydro-5H-5,11-epoxybenzo[7,8]oxocino[4,3-b]pyridin-3-yl)ethylidene)isonicotinohydrazide]
Vero E6 cells; [1]
  CC50: > 200 µg/mL
SARS-CoV-2 virus; [2]
  EC50: > 200 µg/mL
SARS-CoV-2 virus
  inhibition of virus-induced CPE development / virus replication (in words): did not affect the development of CPE

## C/C(=N\NC(=O)c1ccccc1O)c1cc2c(nc1C)CC1OC2(C)Oc2ccccc21 (stereo not shown) [Compound 4b, (E)-N′-(1-(2,5-dimethyl-11,12-dihydro-5H-5,11-epoxybenzo[7,8]oxocino[4,3-b]pyridin-3-yl)ethylidene)-2-hydroxybenzohydrazide]
Vero E6 cells; [1]
  CC50: > 200 µg/mL
SARS-CoV-2 virus; [2]
  EC50: > 200 µg/mL
SARS-CoV-2 virus
  inhibition of virus-induced CPE development / virus replication (in words): did not affect the development of CPE

## Cc1nc2c(cc1C(=O)/C=C(\O)C(=O)O)C1(C)Oc3ccccc3C(C2)O1 (stereo not shown) [Compound 5, (Z)-4-(2,5-dimethyl-11,12-dihydro-5H-5,11-epoxybenzo[7,8]oxocino[4,3-b]pyridin-3-yl)-2-hydroxy-4-oxobut-2-enoic acid]
Vero E6 cells; […]
  CC50: > 200 µg/mL
SARS-CoV-2 virus; Severe acute respiratory syndrome coronavirus 2, Vero C1008
  EC50: > 200 µg/mL
SARS-CoV-2 virus
  inhibition of virus-induced CPE development / virus replication (in words): did not affect the development of CPE

## Cc1nc2c(cc1C(=O)/C=C1\Nc3ccccc3NC1=O)C1(C)Oc3ccccc3C(C2)O1 (stereo not shown) [Compound 6a, (Z)-3-(2-(2,5-dimethyl-11,12-dihydro-5H-5,11-epoxybenzo[7,8]oxocino[4,3-b]pyridin-3-yl)-2-oxoethylidene)-3,4-dihydroquinoxalin-2(1H)-one]
Vero E6 cells; [1]
  CC50: 6 µg/mL (≈ 13.7 µM)
SARS-CoV-2 virus; 6a at 0.82 μg/mL, ten wells per concentration
  wells presenting the CPE: Eight of ten
SARS-CoV-2 virus; 6a at 2.47 μg/mL, ten wells per concentration
  wells showing the CPE: one in ten
SARS-CoV-2 virus
  selectivity index (SI): 2.7
  inhibition of virus-induced CPE development / virus replication (in words): inhibition of CPE development was found
SARS-CoV-2 virus; [3]
  EC50: 2.2 µg/mL (≈ 5.01 µM)
SARS-CoV-2 virus; [2]
  EC50: 2.23 µg/mL (≈ 5.07 µM)

## Cc1nc2c(cc1C(=O)/C=C1\Nc3ccccc3OC1=O)C1(C)Oc3ccccc3C(C2)O1 (stereo not shown) [Compound 6b, (Z)-3-(2-(2,5-dimethyl-11,12-dihydro-5H-5,11-epoxybenzo[7,8]oxocino[4,3-b]pyridin-3-yl)-2-oxoethylidene)-3,4-dihydro-2H-benzo[b][1,4]oxazin-2-one]
Vero E6 cells; [1]
  CC50: > 200 µg/mL
SARS-CoV-2 virus; [2]
  EC50: > 200 µg/mL
SARS-CoV-2 virus
  inhibition of virus-induced CPE development / virus replication (in words): did not affect the development of CPE

## Cc1nc2c(cc1C(=O)/C=C1\Nc3ccc([N+](=O)[O-])cc3OC1=O)C1(C)Oc3ccccc3C(C2)O1 (stereo not shown) [Compound 6c, (Z)-3-(2-(2,5-dimethyl-11,12-dihydro-5H-5,11-epoxybenzo[7,8]oxocino[4,3-b]pyridin-3-yl)-2-oxoethylidene)-7-nitro-3,4-dihydro-2H-benzo[b][1,4]oxazin-2-one]
Vero E6 cells; [1]
  CC50: > 200 µg/mL
SARS-CoV-2 virus; [2]
  EC50: > 200 µg/mL
SARS-CoV-2 virus
  inhibition of virus-induced CPE development / virus replication (in words): did not affect the development of CPE

## CCN(CC)CCOc1ccc2c(c1)C(=O)c1cc(OCCN(CC)CC)ccc1-2.Cl [Tilorone, 2,7-bis[2-(diethylamino)ethoxy]fluoren-9-one hydrochloride, reference compound]
SARS-CoV-2 virus
  selectivity index (SI): 1.8
SARS-CoV-2 virus; [3]
  EC50: 4.3 µg/mL
SARS-CoV-2 virus; [2]
  EC50: 4.29 µg/mL
